The text below walks through data of PubChem BioAssay (NCI).

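Test compounds were applied to cells in 96-well plates for 48 hours at 5 doses. The concentration for 50% growth inhibition is given as GI50. The concentration for full growth arrest is given as TGI.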

Test systems include T-47D breast; BT-549 breast; NCI/ADR-RES ovarian; PC-3 prostate.
What all share (assay): NCI-60 cell line screen, 48 h

Turning to `CCCC(C)c1cc(Cc2cc(Cl)cc(Cl)c2O)c(O)c(Cc2cc(Cl)cc(Cl)c2O)c1` (centres undefined), the GI50 was 0.809 µM in the assay on T-47D breast, 1.33 µM with BT-549 breast, 1.66 µM in the assay on NCI/ADR-RES ovarian and 0.43 µM with PC-3 prostate. For the same molecule, the TGI is 6.77 µM in the assay with T-47D breast, 5.2 µM in the assay on BT-549 breast, 11.2 µM in the assay with NCI/ADR-RES ovarian and 4.52 µM in the assay on PC-3 prostate.
Take `COc1ccc(/C=C2\CCCC3=C2N=C2SC(C)=NN2C3c2ccc(OC)c(OC)c2)cc1OC` (centres undefined): the GI50 in the assay with T-47D breast is 4.57 µM; with BT-549 breast, 7.37 µM; in the assay on NCI/ADR-RES ovarian, 4.71 µM; in the assay on PC-3 prostate, 25.8 µM. Moreover, the TGI with T-47D breast, in the assay on BT-549 breast, in the assay on NCI/ADR-RES ovarian and in the assay on PC-3 prostate was > 100 µM in each case.
As for `COc1ccc(-c2nn3c(-c4cc(F)c(Cl)cc4Cl)nnc3s2)cc1`, the GI50 was 27.5 µM with T-47D breast, 24.4 µM with BT-549 breast, 21.2 µM in the assay with NCI/ADR-RES ovarian and 34.1 µM in the assay with PC-3 prostate. The TGI with T-47D breast was > 100 µM; in the assay with BT-549 breast it was 69.7 µM; with NCI/ADR-RES ovarian, 99.7 µM; with PC-3 prostate, > 100 µM.
With `O=C(NCCO)Nc1ccc(-c2nc(N3CCOCC3)c3cccn3n2)cc1`, the GI50 in the assay with T-47D breast was < 0.0212 µM; in the assay with BT-549 breast, 0.0729 µM; in the assay on NCI/ADR-RES ovarian it was 2.25 µM; with PC-3 prostate it was 0.103 µM. The TGI in the assay with T-47D breast is 0.125 µM; in the assay on BT-549 breast, 3.6 µM; with NCI/ADR-RES ovarian, > 33.7 µM; in the assay with PC-3 prostate, > 100 µM.
Turning to `Cc1ccc(-c2cn3ccnc3c(-c3ccc(Cl)cc3)n2)cc1`, the GI50 with T-47D breast was 8.12 µM; in the assay with BT-549 breast, 2.3 µM; in the assay on NCI/ADR-RES ovarian, 0.102 µM; in the assay with PC-3 prostate, 0.356 µM. Moreover, the TGI in the assay with T-47D breast was > 58.5 µM; with BT-549 breast it was 65.3 µM; with NCI/ADR-RES ovarian, > 30.6 µM; in the assay with PC-3 prostate it was > 100 µM.
Consider `CC(C)c1cc(-c2n[nH]c(=O)n2-c2ccc3c(ccn3C)c2)c(O)cc1O`, for which the GI50 in the assay with T-47D breast is < 0.0287 µM; in the assay with BT-549 breast it was 1.87 µM; with NCI/ADR-RES ovarian, 0.0409 µM; in the assay on PC-3 prostate it was < 0.0224 µM. The TGI is 34.5 µM in the assay on T-47D breast, 44.3 µM in the assay on BT-549 breast, > 100 µM in the assay on NCI/ADR-RES ovarian and 49.6 µM in the assay with PC-3 prostate.
On to `CC[C@@H](C(=O)O)C1CC[C@H](C)C([C@@H](C)[C@H](O)[C@H](C)C(=O)[C@H](CC)C2O[C@]3(C=C[C@@H](O)[C@]4(CC[C@@](C)(C5CC[C@](O)(CC)[C@H](C)O5)O4)O3)[C@H](C)C[C@@H]2C)O1` (some centres undefined), for which the GI50 in the assay with T-47D breast is 0.371 µM; in the assay on BT-549 breast, 0.184 µM; in the assay on NCI/ADR-RES ovarian, 0.443 µM; in the assay on PC-3 prostate, 0.0657 µM. Besides, the TGI was determined as 16 µM in the assay with T-47D breast, 3.19 µM in the assay with BT-549 breast, 34.7 µM in the assay on NCI/ADR-RES ovarian and 45.8 µM in the assay with PC-3 prostate.
Regarding `NCCn1c(=O)[nH]c(=O)[nH]c1=S`, the GI50 in the assay with T-47D breast, in the assay on BT-549 breast, with NCI/ADR-RES ovarian and in the assay on PC-3 prostate was > 100 µM in each case. Also, the TGI in the assay on T-47D breast, in the assay with BT-549 breast, with NCI/ADR-RES ovarian and with PC-3 prostate was > 100 µM each time.
For `Cc1cc(N(CCCl)CCCl)ccc1C=Nc1ccc(-c2csc(Cc3ccccc3)n2)cc1`, the GI50 was 2.82 µM in the assay with T-47D breast, 13.4 µM in the assay with BT-549 breast, 5.18 µM in the assay on NCI/ADR-RES ovarian and 5.66 µM in the assay with PC-3 prostate. For the same molecule, the TGI turned out to be 49.2 µM with T-47D breast, 42.4 µM in the assay on BT-549 breast, 34 µM with NCI/ADR-RES ovarian and 44.2 µM with PC-3 prostate.
Take `CN(C)CCNc1c2c(c(NCCN(C)C)c3[nH]ccc13)C(=O)c1ccccc1C2=O`: the GI50 in the assay on T-47D breast was 2.87 µM; in the assay on BT-549 breast it was 1.08 µM; in the assay on NCI/ADR-RES ovarian, 0.887 µM; in the assay with PC-3 prostate, 0.609 µM. The TGI with T-47D breast was > 21.2 µM; in the assay with BT-549 breast, 3.04 µM; in the assay on PC-3 prostate, 11.1 µM.
`CCOC(=O)c1cc(NS(=O)(=O)c2ccccc2)cc(C(=O)OCC)c1`: the GI50 in the assay on T-47D breast, in the assay on BT-549 breast, in the assay with NCI/ADR-RES ovarian and with PC-3 prostate was > 100 µM each time. For the same molecule, the TGI with T-47D breast, with BT-549 breast, in the assay with NCI/ADR-RES ovarian and with PC-3 prostate was > 100 µM in each case.
For `Cn1cccc1-c1cc(-c2cccs2)nc(N)c1C#N`, the GI50 in the assay on T-47D breast, in the assay on BT-549 breast, in the assay with NCI/ADR-RES ovarian and in the assay on PC-3 prostate was > 100 µM each time. The TGI in the assay with T-47D breast, in the assay on BT-549 breast, in the assay with NCI/ADR-RES ovarian and in the assay with PC-3 prostate was > 100 µM each time.
For `COc1ccc2c(c1)/C(=C\c1c(C)nc3sccn13)C(=O)N2`, the GI50 with T-47D breast is 1.98 µM; in the assay on PC-3 prostate it was 0.179 µM. Also, the TGI was > 67.2 µM with T-47D breast, > 82.9 µM with BT-549 breast, > 42.2 µM with NCI/ADR-RES ovarian and > 100 µM in the assay with PC-3 prostate.
As for `COc1ccc2sc3c(NCCCN(C)C)nc4ccccc4c3c(=O)c2c1`, the GI50 is 1.86 µM in the assay with T-47D breast, 5.24 µM in the assay with BT-549 breast, 1.64 µM in the assay on NCI/ADR-RES ovarian and 1.62 µM in the assay with PC-3 prostate. For the same molecule, the TGI amounted to 4.24 µM in the assay on T-47D breast, 18.1 µM in the assay with BT-549 breast, 3.28 µM with NCI/ADR-RES ovarian and 3.22 µM in the assay with PC-3 prostate.
Consider `C=CCOc1cccc(/C=C2\SC(=Nc3ccc(O)cc3)NC2=O)c1`, for which the GI50 is 0.495 µM with T-47D breast, 0.529 µM with BT-549 breast, 0.494 µM in the assay with NCI/ADR-RES ovarian and 0.537 µM in the assay with PC-3 prostate. Also, the TGI in the assay with T-47D breast is > 100 µM; with BT-549 breast it was 3.4 µM; with NCI/ADR-RES ovarian, 17.1 µM; in the assay with PC-3 prostate, > 48.4 µM.
As for `NCCOCCOCCNc1nc(Cc2ccccc2)nc(NCCCN2CCCC2=O)n1`, the GI50 with T-47D breast, in the assay on BT-549 breast, in the assay with NCI/ADR-RES ovarian and in the assay on PC-3 prostate was > 100 µM each time. For the same molecule, the TGI in the assay on T-47D breast, with BT-549 breast, in the assay with NCI/ADR-RES ovarian and with PC-3 prostate was > 100 µM in each case.
`COc1ccc(-c2c3c(N)nc(-c4ccncc4)nc3nc3c2c(C)nn3-c2ccccc2)cc1`: the GI50 was 3.96 µM with T-47D breast, 41.5 µM in the assay with BT-549 breast, 19.7 µM in the assay with NCI/ADR-RES ovarian and > 100 µM in the assay with PC-3 prostate. Further, the TGI in the assay with T-47D breast, in the assay with BT-549 breast, in the assay with NCI/ADR-RES ovarian and in the assay with PC-3 prostate was > 100 µM each time.
As for `Oc1cccc2ccc(N/N=C/c3cc(CN4CCCCC4)c(O)c4ncccc34)nc12`, the GI50 is 0.192 µM in the assay on T-47D breast, 0.0574 µM in the assay on BT-549 breast, 0.0463 µM in the assay with NCI/ADR-RES ovarian and 0.0417 µM in the assay with PC-3 prostate. Besides, the TGI with T-47D breast is 14.9 µM; in the assay with BT-549 breast, 6.02 µM; in the assay with NCI/ADR-RES ovarian, 1.06 µM; with PC-3 prostate, 1.86 µM.
For `COc1ccc(-c2nc3sc4c(c3c(=O)[nH]2)CCCCCC4)cc1`, the GI50 in the assay with BT-549 breast was 5.4 µM; in the assay with NCI/ADR-RES ovarian, 2.16 µM; in the assay with PC-3 prostate it was > 33.2 µM. Moreover, the TGI with BT-549 breast, in the assay on NCI/ADR-RES ovarian and in the assay with PC-3 prostate was > 33.2 µM in each case.
`Cc1ccccc1[P+](Cc1ccccc1)(c1ccccc1)c1ccccc1`: the GI50 with BT-549 breast is 2.4 µM; in the assay with NCI/ADR-RES ovarian, > 100 µM; with PC-3 prostate, 1.45 µM. Also, the figures for the TGI in the assay with BT-549 breast, in the assay with NCI/ADR-RES ovarian and in the assay with PC-3 prostate were 11.5 µM, > 100 µM and > 100 µM, respectively.
With `COc1ccc(-c2n/c(=C\c3c(O)[nH]c4ccc(OC)cc34)cc3c2=Nc2ccccc2-3)cc1`, in the assay on T-47D breast, the GI50 was 11.8 µM and the TGI is 40.5 µM. Also, in the assay with PC-3 prostate, the GI50 was 22.1 µM and the TGI is > 100 µM.
Regarding `O=C1/C(=C\c2c[nH]c3ccccc23)c2ccccc2N1c1c(Cl)cccc1Cl`, the GI50 with T-47D breast is 2.01 µM; in the assay on BT-549 breast, 1.6 µM; in the assay with PC-3 prostate, 1.35 µM. In addition, the values for the TGI in the assay on T-47D breast, with BT-549 breast and with PC-3 prostate were 5.62 µM, 4.07 µM and 2.96 µM, respectively.
In the case of `CCCCC(CC)CN=C(N)NC(N)=NCCCCCCN=C(N)NC(N)=NCC(CC)CCCC` (centres undefined), in the assay with T-47D breast, the GI50 is 2.21 µM and the TGI was 4.9 µM. In the assay with NCI/ADR-RES ovarian, the GI50 is 10.4 µM and the TGI stood at 33.6 µM.
Take `COc1ccc(OC)c(/C=C2\SC(=S)NC2=O)c1`: the GI50 in the assay with T-47D breast is 18.6 µM; in the assay on NCI/ADR-RES ovarian, 25.4 µM; in the assay on PC-3 prostate, 35 µM. Besides, the results for the TGI in the assay with T-47D breast, with NCI/ADR-RES ovarian and in the assay with PC-3 prostate were 56.7 µM, 87.5 µM and > 100 µM, respectively.
For `COc1cc2c(c(OC)c1)C1c3ccccc3NC(=O)N1CC2` (centres undefined), the values for the GI50 in the assay with T-47D breast, with BT-549 breast and in the assay with PC-3 prostate were 5.59 µM, 6.24 µM and 3.89 µM, respectively. For the same molecule, the results for the TGI in the assay on T-47D breast, with BT-549 breast and with PC-3 prostate were > 100 µM, 80.7 µM and > 100 µM, respectively.
